In article PMC12040169 (PLOS Biology, 2025) one finds viability data, which are given here for 75 molecules.

A word on the viability: it is a read-out of living cells in per cent, often relative to untreated cells.

The first series is described as follows: in vitro. Conditions: human, hela cells, % viability.
As to `CC(Sc1ccc(Br)c2cccc(C(=O)O)c12)C(=O)O` (stereo not drawn) [CBK266226], the viability at 28.5 h, 10 µM came out at 97.4%. Still for that read-out and setting: with `Cc1cc(C(F)F)n2nc(C(=O)NCc3ccccc3F)nc2n1` [CBK266228] the figure was 97.2%; with `Cn1cc(C(CC(=O)O)C(=O)O)c2ccccc21` (stereo not drawn) [CBK266231], 98.9%; with `CCc1ccc(Oc2c[nH]nc2-c2ccc(OCc3cnn(-c4ccccc4)c3)cc2O)cc1` [CBK266233], 91.4%.

Turning to `O=C(CCN1C(=O)c2cccc3cccc(c23)C1=O)Oc1ccc2c(c1)OCO2` [CBK266237], the viability at 28.5 h, 10 µM stood at 106%. Same read-out and setting: in the case of `CN1CCN(c2ccc(NC(=S)NC(=O)c3cc4ccccc4o3)cc2)CC1` [CBK266240] it was 95.5%. With `COC(=O)c1ccccc1NC(=O)CN(C)S(=O)(=O)c1c(C)cc(C)cc1C` [CBK266241], the viability at 28.5 h, 10 µM came to 110%. Same read-out and setting: in the case of `COc1ccc(S(=O)(=O)N(C)CC(=O)Nc2cccc(C(F)(F)F)c2)cc1OC` [CBK266242] it was 95.5%; in that of `COc1ccc([N+](=O)[O-])cc1NC(=O)C1(c2ccc(OC)c(OC)c2)CCOCC1` [CBK266243], 98.2%; in that of `CN1CCN(CC(=O)Nc2ccc(Cl)cc2C(=O)c2ccccc2)CC1` [CBK266246], 91.8%. Still for that read-out and setting: with `O=C(C1=C(O)C(=O)N(Cc2ccncc2)C1c1cccc(OCc2ccccc2)c1)c1cccs1` (stereo not drawn) [CBK266247] the figure was 102%; with `COC(=O)c1ccccc1NC(=O)CSc1nnc(-c2sc(N)nc2C)o1` [CBK266250], 100%; with `Cc1cc(C(F)F)n2nc(C(=O)Nc3ccc(S(=O)(=O)NC45CC6CC(CC(C6)C4)C5)cc3)nc2n1` [CBK266251], 96.2%.

For the molecule `O=C1c2cccc3cccc(c23)C(=O)N1CCN1CCN(CC(O)COc2ccccc2)CC1` (stereo not drawn) [CBK266255], the viability at 28.5 h, 10 µM was 97.4%. Regarding `COc1ccc(NC(=N)Nc2nc(=O)cc(CSc3nc4ccccc4s3)[nH]2)cc1` [CBK266256], the viability at 28.5 h, 10 µM amounted to 101%. Consider `COC(=O)c1cc(NC(=O)CC2Sc3ccccc3NC2=O)cc(C(=O)OC)c1` (stereo not drawn) [CBK266260], for which the viability at 28.5 h, 10 µM is 99.6%. On to `CC(=O)Nc1ccc(S(=O)(=O)Nc2ccc(-c3csc(C)n3)cc2)cc1` [CBK266261], for which the viability at 28.5 h, 10 µM amounted to 85.7%.

`CC(Oc1ccccc1)c1nnc(SCC(=O)Nc2cc(Cl)c(Cl)cc2Cl)n1C` (stereo not drawn) [CBK266262]: the viability at 28.5 h, 10 µM amounted to 108%. `NS(=O)(=O)c1ccc(NC(=S)NC(=O)c2ccc(Cl)cc2Cl)cc1` [CBK266265]: the viability at 28.5 h, 10 µM came out at 94%. Same read-out and setting: with `CN(C)S(=O)(=O)c1ccc(-c2nn(-c3ccccc3)cc2/C=C(\C#N)c2nc3ccccc3c(=O)[nH]2)cc1` [CBK266266] the figure was 101%; with `N#C/C(=C\c1cn(-c2ccccc2)nc1-c1ccc(S(=O)(=O)N2CCCCC2)cc1)c1nc2ccccc2c(=O)[nH]1` [CBK266268], 101%; with `Cc1ccc(S(=O)(=O)NCCn2cnc([N+](=O)[O-])n2)cc1` [CBK266270], 96.3%. The same measure, in the same setting: in the case of `Cc1sc(NC(=S)NC(=O)C2CCCCC2)c(C(N)=O)c1C` [CBK266273] it was 97.3%.

As to `O=C(CSCc1c(Cl)cccc1Cl)Nc1ccc(S(=O)(=O)N2CCOCC2)cc1` [CBK266276], the viability at 28.5 h, 10 µM is 109%.

Take `O=C(CN(c1ccc(I)cc1)S(=O)(=O)c1ccccc1)NCC1CCCO1` (stereo not drawn) [CBK266278]: the viability at 28.5 h, 10 µM came to 101%. Same read-out and setting: with `Cc1ccc2nsnc2c1NC(=O)Cc1cccc2ccccc12` [CBK266279] the figure was 98.8%; with `COc1ccc(S(=O)(=O)NCCSCc2cccc(Cl)c2)c(Cl)c1Cl` [CBK266281], 97.6%. For `O=C(Cc1cccc2ccccc12)NC(=S)Nc1ccc(S(=O)(=O)N2CCCCC2)cc1` [CBK266283], the viability at 28.5 h, 10 µM worked out at 106%. On the same count and under the same terms, with `COc1cc(S(=O)(=O)N2CCN(S(=O)(=O)c3cccc([N+](=O)[O-])c3)CC2)ccc1Cl` [CBK266285] the figure was 89.6%.

As to `O=C(Cc1cccc2ccccc12)Nc1ccc2oc(-c3ccccc3)nc2c1` [CBK266286], the viability at 28.5 h, 10 µM turned out to be 96.3%. Take `CCOC(=O)c1cnc(SCc2nc(N)nc(Nc3ccc(C)cc3)n2)nc1N` [CBK266292]: the viability at 28.5 h, 10 µM amounted to 115%. On the same count and under the same terms, with `Cc1ccc(OCC(O)Cn2c(=N)n(Cc3ccccc3)c3ccccc32)cc1` (stereo not drawn) [CBK266293C] the figure was 91.7%; with `O=C(CNS(=O)(=O)c1ccc(Br)cc1)NCc1cccnc1` [CBK266295], 97.2%; with `Cc1ccc(S(=O)(=O)NC(C)(C)CSc2nncn2N)cc1` [CBK266297], 103%. As to `Cc1ccc(S(=O)(=O)NCCSc2nnc(N)s2)cc1` [CBK266300], the viability at 28.5 h, 10 µM is 97.9%. `Cc1cc2oc(C(=O)Nc3sc4c(c3C#N)CCCC4)c(C)c2cc1C` [CBK266301]: the viability at 28.5 h, 10 µM came out at 103%. On the same count and under the same terms, in the case of `Cc1cccc(Nc2[nH]c3cc(C)ccc3c2[N+](=O)[O-])c1` [CBK266303] it was 81.9%; in that of `Nc1nnc(-c2ccc(Oc3nc(N4CCOCC4)nc(N4CCOCC4)n3)cc2)s1` [CBK266305], 96.1%; in that of `O=S(=O)(NCC(Sc1ccc(F)cc1)c1ccccc1)c1ccc(Cl)cc1` (stereo not drawn) [CBK266306], 96.8%. Turning to `O=C(O)CCc1c(-c2ccccc2)cc2ccccn12` [CBK266308], the viability at 28.5 h, 10 µM came to 109%. Still for that read-out and setting: in the case of `O=C(O)c1cccc(CSc2nnc(-c3ccncc3)o2)c1` [CBK266310] it was 106%; in that of `O=C1CC(c2nc3ccccc3n2CCc2ccccc2)CN1c1ccccc1` (stereo not drawn) [CBK266311], 101%.

Take `NC(=O)C1CCCN(S(=O)(=O)c2ccc(S(N)(=O)=O)cc2)C1` (stereo not drawn) [CBK266312]: the viability at 28.5 h, 10 µM came out at 96.2%. Consider `O=C(NCC1CCCO1)c1ccc(NC(=O)C2C3C=CC(C3)C2C(=O)O)cc1` (stereo not drawn) [CBK266317], for which the viability at 28.5 h, 10 µM came out at 94.9%. `Cc1nnc(SCc2cc(=O)nc(NC(=N)Nc3cccc(Cl)c3)[nH]2)s1` [CBK266318]: the viability at 28.5 h, 10 µM worked out at 75.5%. In the case of `CC1CCc2c(sc(NC(=S)NC(=O)c3cc4ccccc4o3)c2C#N)C1` (stereo not drawn) [CBK266319], the viability at 28.5 h, 10 µM stood at 101%. Regarding `Nc1nnc(SCC(=O)N2CCN(C(c3ccccc3)c3ccccc3)CC2)s1` [CBK266320], the viability at 28.5 h, 10 µM came to 99.2%. Turning to `COc1ccc(CCN2C(=O)CC(Nc3ccc(N4CCOCC4)cc3)C2=O)cc1OC` (stereo not drawn) [CBK266322], the viability at 28.5 h, 10 µM amounted to 97.7%. As for `O=C(Cc1cccc2ccccc12)Nc1ccccc1C(=O)O` [CBK266325], the viability at 28.5 h, 10 µM amounted to 100%. In the case of `CCOc1cc(C#N)cc(I)c1OCC(=O)O` [CBK266326], the viability at 28.5 h, 10 µM came out at 96.9%. Turning to `Cc1[nH]c2ccccc2c1C(=O)CSc1nnc(N)s1` [CBK266328], the viability at 28.5 h, 10 µM was 102%. On the same count and under the same terms, with `CS(=O)(=O)N(CC(=O)N1CCN(C(c2ccccc2)c2ccccc2)CC1)c1cccc(F)c1` [CBK266330] the figure was 105%; with `Nc1nnc(SCC(=O)Nc2ccc3c(c2)OCCO3)s1` [CBK266331], 95.6%.

Consider `COc1cc(Cl)cc(C2NC(=S)NC(c3ccccc3)=C2C(=O)c2ccccc2)c1OCC(=O)O` (stereo not drawn) [CBK266332], for which the viability at 28.5 h, 10 µM is 106%. As for `CC1(C)CC(=O)C2=C(C1)Nc1nn(-c3ccccc3)c(O)c1C2c1cccs1` (stereo not drawn) [CBK266333], the viability at 28.5 h, 10 µM came to 94%. Still for that read-out and setting: with `O=C(Nc1sc2c(c1C(=O)NCc1cccnc1)CCCC2)c1sc2ccccc2c1Cl` [CBK266334] the figure was 95.9%. On to `CN(C)CCSc1nc2cc(Cl)ccc2o1` [CBK266337C], for which the viability at 28.5 h, 10 µM stood at 96.6%.

Regarding `N#C/C(=C\c1cn(-c2ccccc2)nc1-c1ccc(S(=O)(=O)N2CCOCC2)cc1)c1nc2ccccc2c(=O)[nH]1` [CBK266343], the viability at 28.5 h, 10 µM was determined as 104%. Still for that read-out and setting: with `Cc1sc(NC(=S)NC(=O)Cc2cccc3ccccc23)c(C(N)=O)c1C` [CBK266344] the figure was 91.4%. On to `Cc1ccc(S(=O)(=O)NCCSc2nnc(Nc3ccccc3)s2)cc1` [CBK266345], for which the viability at 28.5 h, 10 µM stood at 106%.

For `N#C/C(=C\c1cn(-c2ccccc2)nc1-c1cccc(S(=O)(=O)N2CCCCCC2)c1)c1nc2ccccc2c(=O)[nH]1` [CBK266347], the viability at 28.5 h, 10 µM stood at 103%.

For the molecule `CCOC(=O)C1=C(c2ccccc2)Nc2ncnn2C1c1cccc(OC)c1OC` (stereo not drawn) [CBK266353], the viability at 28.5 h, 10 µM turned out to be 106%.

In the case of `Cc1ccc(C(=O)N2CCN(c3ccc(NC(=O)c4ccc(-c5cccc([N+](=O)[O-])c5)o4)cc3)CC2)cc1` [CBK266355], the viability at 28.5 h, 10 µM came out at 107%. Same read-out and setting: with `O=C(O)c1[nH]nc2c1COc1ccccc1-2` [CBK266356] the figure was 97.5%; with `N#C/C(=C\c1cn(-c2ccccc2)nc1-c1cccc(S(=O)(=O)N2CCOCC2)c1)c1nc2ccccc2c(=O)[nH]1` [CBK266357], 98.1%. On the same count and under the same terms, with `Nn1cnnc1SC1CCCCC1NS(=O)(=O)c1ccccc1` (stereo not drawn) [CBK266361] the figure was 95.7%; with `CC(Oc1ccccc1)c1nnc(SCC(=O)Nc2ccc(Br)cc2F)n1C` (stereo not drawn) [CBK266364], 101%; with `Cc1ccc(C)c(NC(=O)CSc2nnc(CCc3ccccc3)n2C)c1` [CBK266365], 93.7%. Same read-out and setting: in the case of `Cc1ccc(S(=O)(=O)NC(C)(C)CSc2nncn2C)cc1` [CBK266366] it was 104%; in that of `O=C(COc1ccc(-c2cnc3ccccc3n2)cc1)c1cccc([N+](=O)[O-])c1` [CBK266367], 86.8%; in that of `O=C(O)c1c[nH]nc1-c1ccc(Br)cc1` [CBK266368], 91.5%.

Turning to `c1ccc(-n2nnnc2CSc2nc3ccccc3s2)cc1` [CBK266372], the viability at 28.5 h, 10 µM came out at 102%.

For the molecule `COc1ccc(C(=O)Nc2ccccc2-c2nc3ccccc3s2)cc1OC` [CBK266376], the viability at 28.5 h, 10 µM was determined as 93.9%. Consider `O=S(=O)(NC1CCCCC1Sc1nnc(Nc2ccccc2)s1)c1ccccc1` (stereo not drawn) [CBK266378], for which the viability at 28.5 h, 10 µM was determined as 96.7%.

The same series, now with this note: human, hela cells, % viability, bulk resorufin, single well.
`O=C1NC(=O)C(CCc2ccccn2)(Cc2cccc(Cl)c2Cl)C(=O)N1c1ccc(Br)cc1` (stereo not drawn) [CBK266359]: the viability at 28.5 h, 10 µM came out at 94.2%.
